Experimental data: US6608107B2, “Methods and compositions to treat conditions associated with neovascularization” (Wackvom Limited, priority 2000, dated 2003)
Where “and” joins values, the source holds several entries; their conditions need not be identical. Equal entries are not always repeated.

How the values were obtained:
[1] = Organ distribution of gossypol enantiomers; conditions: in vivo
endothelial cells = test: Endothelial Cell Assay (inhibition of endothelial cell growth); type: cell-based; conditions: for Endothelial cell assay reading, samples 1-5: raw reading per sample
Procedure: The assays were carried out according to the procedures of Connally, et al. (1986) Anal. Biochem. 152:136-4 with modifications (Liang and Wong (1999) ANGIOGENESIS: FROM THE MOLECULAR TO INTEGRATIVE PHARMACOLOGY edited by Maradoudakis, Kluwer Academic/Plenum. Publishers, New York).

Cc1cc2c(C(C)C)c(O)c(O)c(C=O)c2c(O)c1-c1c(C)cc2c(C(C)C)c(O)c(O)c(C=O)c2c1O [(+) gossypol]
organs in which the enantiomer concentrates [1]: concentrates in the kidneys

Cc1cc2c(C(C)C)c(O)c(O)c(C=O)c2c(O)c1-c1c(C)cc2c(C(C)C)c(O)c(O)c(C=O)c2c1O [(−) gossypol]
organs in which the enantiomer concentrates [1]: concentrates in the major organs such as the heart, spleen and muscles

Cc1cc2c(C(C)C)c(O)c(O)c(C=O)c2c(O)c1-c1c(C)cc2c(C(C)C)c(O)c(O)c(C=O)c2c1O [Gossypol Acetate, gossypol acetate]
Inhibition (endothelial cells; Gossypol Acetate, first column (concentration not given)): 46.2% | Inhibition (endothelial cells; Gossypol Acetate, second column (concentration not given)): 21.3% | Endothelial cell assay reading, samples 1-5 (endothelial cells; Gossypol Acetate): 0.3289 and 0.3165 and 0.3065 and 0.3035 and 0.3269

Cc1cc2c(C(C)C)c(O)c(O)c(C=O)c2c(O)c1-c1c(C)cc2c(C(C)C)c(O)c(O)c(C=O)c2c1O [Gossypol]
Endothelial cell assay reading, samples 1-5 (endothelial cells; Concentration of Gossypol: 25 mM): 0.0112 and 0.0078 and 0.0057 and 0.0068 and 0.0076 | inhibition at 25000 µM (endothelial cells; Endothelial cell, Concentration of Gossypol: 25 mM): 97.6%
